Like-named read-outs stand apart in the source and are kept apart here. Where a SMILES comes first, the peptide text is derived from it. [ ]: non-standard residue; d: D form. Dab = NCC[C@H](N)C(=O)O
Columns and labels:
[1] = biological target: Zika virus NS2B-NS3 protease (ZiPro) (Zika virus, UniProt A0A024B7W1); test: Zika virus NS2B-NS3 protease (ZiPro) inhibition assay; assay type: biochemical; settings: for IC50: purified compounds, dose-response curve assuming Hill slope of 1, 3-parameter fit
Zika virus NS2B-NS3 protease (ZiPro), sequence (A0A024B7W1 1503-1679): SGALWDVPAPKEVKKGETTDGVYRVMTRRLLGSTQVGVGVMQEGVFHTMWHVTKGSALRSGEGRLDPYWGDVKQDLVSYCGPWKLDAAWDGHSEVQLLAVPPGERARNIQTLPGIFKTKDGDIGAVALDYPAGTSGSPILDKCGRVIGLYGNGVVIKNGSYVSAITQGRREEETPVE
Zika virus NS2B-NS3 protease (ZiPro), sequence (A0A024B7W1 1417-1468): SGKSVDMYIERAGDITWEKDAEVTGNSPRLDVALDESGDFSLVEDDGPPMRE
Experimental: Expression and purification of Zika virus protease NS2B-NS3 (ZiPro)
The unlinked Zika virus protease NS2B-NS3 construct referred to as bZiPro was obtained from Addgene (plasmid #86846) and expressed and purified exactly as described previously.1 Preparation of samples for ZiPro assay
Linear peptide samples 1a – 10a were prepared by adding 2 µl of 1a – 10a (10 mM in water) to 198 µl of buffer (10 mM Tris pH 7.5, 1 mM TCEP). The presence of TCEP is important to reduce cyclic disulfides. Stapled peptides 1b – 10b were prepared in situ by adding 2.5 µl of DCP (10 mM in DMSO) and 2 µl of 1a – 10a (10 mM in water) to 195.5 µl of buffer (10 mM Tris pH 7.5, 1 mM TCEP). Samples were incubated overnight, and the presence of stapled peptides 1b – 10b was confirmed by LC-MS (method B).
ZiP ro inhibition assay (Table 2)
The assay was conducted in 96-well plates (black U-bottom, Greiner Bio-One) in a total volume of 100 µl using 10 mM Tris pH 8.5, 1 mM CHAPS, 20% glycerol . All measurements were performed in triplicate. Purified peptides 1a – 10a and crude mixtures containing peptides 1b – 10b (prepared as described above) were incubated with ZiPro (0.3 nM) at final concentrations of 1 and 10 µM. The enzymatic reaction was initiated by addition of the substrate Bz-Nle-Ly s-Lys-Arg-A MC (Biosynt a n) at a final concentration of 5 µM.
Fluorescence was monitored by a fluorophotometer (Spectramax M2e plate reader, Molecular Devices) for 5 min at 460 nm using 360 nm excitation. Initial velocities were derived from the linear range, and 100% enzyme activity was defined as the initial velocity of blank wells containing no peptide. Percent inhibition was calculated as a fraction of 100% enzyme activity.
In situ stapling of 1b during ZiPro inhibition assay (Figure 3a)
All measurements were performed in triplicate. 2 µl of DCP (20 mM in DMSO) and 2 µl of 1a (10 mM in water) were mixed in 196 µl buffer (10 mM Tris pH 7.5, 4 mM TCEP). A blank was prepared by adding 2 µl of DCP (20 mM in DMSO) to 198 µl buffer (10 mM Tris pH 7.5, 4 mM TCEP). After 5 minutes, 10 µl of the reaction and blank mixtures were added to ZiPro (0.3 nM) in assay buffer (10 mM Tris pH 8.5, 1 mM CHAPS, 20% glycerol) to a total volume of 100 µl and incubated at room temperature. After incubation over 5, 20, 45, 90 and 180 minutes, substrate (5 µM) was added, and the enzyme activity was monitored as described above. Percent inhibition was calculated as a fraction of 100% enzyme activity considering each individual set of blanks.
Determination of IC50 values of 1a and 1b (Figure 3b-c)
All measurements were performed in triplicate using the ZiPro assay described above . Stock solutions (1 mM and 2 mM) of 1a were prepared in buffer (10 mM Tris pH 7.5, 4 m M T C EP) and used immediately. ZiPro inhibition of 1a was measured at 100, 50, 20, 5, 2. 5, 1, and 0. 5
µM. Stock solutions of purified 1b were made in water. ZiPro inhibition of 1b was measured at 50, 20, 5, 2.5, 1, 0.5, and 0.1 µM. The IC50 values were calculated using GraphPad Prism 8 using a 3 -parameter fit . […]

[2] = the molecule shown is the open-chain precursor, crosslinker bond, 0.6 mM

## N=C(N)NCCC[C@H](NC(=O)[C@H](CCCCN)NC(=O)[C@@H](N)CCNC(=O)[C@@H](N)CS)C(=O)N[C@@H](CCCCN)C(=O)N[C@@H](CCNC(=O)[C@@H](N)CS)C(N)=O [1a] (H-[Dab](Cys)KRK[Dab](Cys)-NH2)
[1]; triplicate
  IC50: 23 µM
[1]; purified linear peptides at 1 μM, ZiPro 0.3 nM, substrate 5 μM, 10 mM Tris pH 8.5, 1 mM CHAPS, 20% glycerol, triplicate, n.i. = no inhibition
  ZiPro inhibition (%) 1 μM: n.i.
[1]; purified linear peptides at 10 μM, ZiPro 0.3 nM, substrate Bz-Nle-Lys-Lys-Arg-AMC 5 μM, 10 mM Tris pH 8.5, 1 mM CHAPS, 20% glycerol, fluorescence, triplicate, n.i. = no inhibition
  inhibition at 10 µM: 23 ± 4%

## N=C(N)NCCC[C@@H]1NC(=O)[C@H](CCCCN)NC(=O)[C@@H](N)CCNC(=O)[C@@H]2CSC(=N2)c2cccc(n2)C2=N[C@@H](CS2)C(=O)NCC[C@@H](C(N)=O)NC(=O)[C@H](CCCCN)NC1=O [1b]
[1]; in situ stapled peptides (crude mixtures, no purification) after 24 h incubation with DCP, 1 μM, ZiPro 0.3 nM, substrate 5 μM, pH 8.5, triplicate, n.i. = no inhibition
  inhibition at 1 µM: 27 ± 4%
[1]; in situ stapled peptides (crude mixtures, no purification) after 24 h incubation with DCP, 10 μM, ZiPro 0.3 nM, substrate 5 μM, pH 8.5, triplicate, n.i. = no inhibition
  inhibition at 10 µM: 60 ± 7%
[1]; triplicate
  IC50: 0.8 µM

## N#Cc1cccc(C#N)n1 [DCP, 2,6-dicyanopyridine, reference compound]
[1]; concentrations of DCP used in the assay
  effect of DCP on ZiPro activity: no significant effect

## H-Cys-Lys-Arg-Lys-Dab(Cys)-NH2?
[2]; 25-membered ring, 2,6-dicyanopyridine (2 eq)/TCEP, 10 mM Tris pH 7.5 (aq, MeOH from DCP stock)
  ring closure, conversion: 76%

## H-Cys-Lys-Arg-Lys-Dap(Cys)-NH2?
[2]; 24-membered ring, 2,6-dicyanopyridine (2 eq)/TCEP, 10 mM Tris pH 7.5 (aq, MeOH from DCP stock)
  ring closure, conversion: 83%

## H-Cys-Lys-Arg-Lys-Lys(Cys)-NH2?
[2]; 27-membered ring, 2,6-dicyanopyridine (2 eq)/TCEP, 10 mM Tris pH 7.5 (aq, MeOH from DCP stock)
  ring closure, conversion: 83%

## H-Cys-Lys-Arg-Lys-Orn(Cys)-NH2?
[2]; 26-membered ring, 2,6-dicyanopyridine (2 eq)/TCEP, 10 mM Tris pH 7.5 (aq, MeOH from DCP stock)
  ring closure, conversion: 79%

## H-Dys-Lys-Arg-Lys-Dys-NH2
[2]; 30-membered ring, 2,6-dicyanopyridine (2 eq)/TCEP (6 eq), 10 mM Tris pH 7.5
  ring closure, conversion: 93%
[2]; 30-membered ring, 2,6-dicyanopyridine (2 eq)/TCEP, 10 mM Tris pH 7.5 (aq, MeOH from DCP stock)
  ring closure, conversion: 89%
[2]; 30-membered ring, 2,6-dicyanopyridine (8 eq)/TCEP, 10 mM Tris pH 7.5
  ring closure, conversion: 60%
